A short description of data set [1]: Extraction (partition) into ethyl acetate. The format is physicochemical. From the text:
(§1) Reaction conditions optimal for carrying out an ACE catalyzed hydrolysis of a substrate of the present invention are the same as have been previously described for substrates known in the prior art. Detailed studies of optimal conditions using HipGlyGly as substrate have been reported by Dorer, et al. The pH optimum is approximately 8.0 although greater than 50% maximal activity is obtained in the pH range 7.0-9.0, in the presence of 1 M NaCl. […] The relationship between the chloride requirement and the ionic strength requirement has not been fully characterized. […] Phosphate is inhibitory. Hepes, bicine and barbital buffers are suitable for use but Hepes is preferred because it provides maximum activity. Preferred conditions of buffer composition, ionic strength, pH and temperature are described in Example 1. […] The pH range for usable enzyme activity is from pH 6.5 to pH 8.7, with a broad plateau of maximal activity ranging from pH 7.2 to pH 8.5. Optimal substrate concentration depends upon the apparent Km, for the substrate compared with the Km's of possible competing substances in the sample. A substrate having a relatively low Km, such as ^3 H-benzoylProPheArg (Km 2×10^-4 M) could be suitably used at a concentration less than its Km. A substrate having a higher Km might better be used at a concentration greater than its Km. […] Because its Km is the lowest of any of the substrates of the present invention, ^3 H-benzoylProPheArg is the most preferred substrate for assays where ACE activity is low and maximum sensitivity is desired. In addition to being less sensitive to competitive inhibition, assays carried out with this substrate are potentially able to measure lower levels of ACE than the other substrates disclosed herein. Additionally, its partition behavior in an aprotic organic solvent is extremely favorable: only about 3% entered ethyl acetate in a preliminary extraction experiment. The remnant product Benzoylproline was about 90% extracted.
The remnant reaction product may be extracted from the reaction mixture by an aprotic organic solvent which affords a reasonably quantitative separation of product from substrate. The use of solvents which may interfere with the counting process is to be avoided. Ethyl acetate is preferred. Approximately 91% of ^3 H-Hippuric acid is extracted into ethyl acetate. Extraction may be carried out by any suitable means familiar to those skilled in the art, such as shaking, agitating, mixing and the like. Separation of the phases is conveniently accomplished by centrifugation. Centrifugation at 1000×G for ten minutes is preferred, either at room temperature or in a refrigerated centrifuge. In some cases, an emulsion will form which can be separated by a longer centrifugation step.
A control determination of background radioactivity was made using 50 μl. of reaction buffer instead of diluted serum in the reaction mixture. The purpose of this control was to determine the number of total counts attributable to background radiation, non-specific release of hippuric acid and the presence of unreacted substrate in the ethyl acetate phase. Less than 7% of the ^3 H-HipGly Gly entered the organic phase. Total radioactivity was determined by counting an amount of substrate equal to that used in the reaction mixture directly in the scintillation counter. […]

Data set [2] relates to angiotensin converting enzyme (ACE). Briefly: ACE-catalyzed hydrolysis: Km, pH, chloride and buffer dependence. It is filed as biochemical.
Excerpt: as §1

For data set [3], the target named is T1, serum angiotensin converting enzyme (ACE) (Homo sapiens, UniProt P12821).
T1 construct: the activity observed with the present assay method in human serum is identical to ACE; from tissue; host or cells: human serum (unfractionated)
The data set can be described thus: biochemical. The format is biochemical. The settings on record: for ACE Activity as % of control: 60 min; for Mode of inhibition (in words): ACE catalyzed hydrolysis of ^3H-HipGlyGly. How it is done:
The reaction buffer contains 0.05 M Hepes, 0.1 M sodium chloride and 0.6 M sodium sulphate at pH 8.0. (Pepes is N-2-Hydroxyethyl piperazine N'-2-ethane sulfonic acid.) The substrate, ^3 H-HipGlyGly was dissolved in reaction buffer at a concentration of 16 mM and a specific radioactivity of about 0.15 millicuries/millimole. Serum was prepared from fresh whole blood by standard techniques. […] Hemolyzed samples were not used in the assay. […] For the assay, 50 μl. of serum was diluted with 200 μl. of reaction buffer. All the reactions were carried out in glass tubes due to the potentially destructive action of ethyl acetate on plastic.
(§2) The reaction mixture was composed of 50 μl. of diluted serum, an appropriate amount of substrate solution depending on the final substrate concentration desired, and reaction buffer sufficient to give a total reaction volume of 100 μl. All reaction tubes were incubated for 60 minutes at 37° C. Reactions were terminated by the addition of 1.0 ml. of 0.1 N hydrochloric acid. The reaction mixture was then extracted with 1.0 ml. ethyl acetate, by rotary agitation for 4-5 seconds. The phases were separted by centrifugation at 1000×G for ten minutes. A 0.5 ml. sample of the ethyl acetate (upper) layer was removed and tranferred to a scintillation vial containing 10 ml. scintillation fluid. (Riafluor, Trademark, New England Nuclear Corp., Boston, Mass.)
A control determination of background radioactivity was made using 50 μl. of reaction buffer instead of diluted serum in the reaction mixture. The purpose of this control was to determine the number of total counts attributable to background radiation, non-specific release of hippuric acid and the presence of unreacted substrate in the ethyl acetate phase. […] Total radioactivity was determined by counting an amount of substrate equal to that used in the reaction mixture directly in the scintillation counter.
(§3) Reaction velocity, in terms of nanomoles of product formed per minute per ml of serum was calculated according to the following formula: [formula] In this formula, "nmoles" means nanomoles, "min" means minutes, "ml" means milliliters and "cpm" means radioactivity counts per minute. The factor of 2 is a correction for the aliquot size.
In this series of reactions, the procedure described in Ex. 1 was followed except that the substrate concentration was 8 mM throughout and specific inhibitor substances were added at the indicated final concentration. Bradykinin, angiotensin I, BPP5α and EDTA have been described hereinabove. BPP9α (SQ20881) is a nonapeptide from snake venom having the sequence <GluTryProArgProGlnIleProPro.
*Standard assay conditions as described in Example 1 were used.
**ΔCPM = (CPM of compound CPM of Blank)

Data set [4] has as its target T2, angiotensin converting enzyme (ACE) (Homo sapiens, UniProt P12821).
T2 construct: Serum was prepared from fresh whole blood by standard techniques; from tissue; host or cells: serum (unfractionated)
Briefly: Hydrolysis of ^3H-BenzoylProPheArg by normal human serum: effect of various compounds. It is filed as biochemical. The settings on record: ^3H-BenzoylProPheArg substrate. As to the method:
Hydrolysis of […] ^3 H-BenzoylProPheArg using the standard reaction procedure of Example 1 with normal human serum as the ACE source was measured in the absence and in the presence of competing substrates and an inhibitor.

For data set [5], the system named is angiotensin converting enzyme (ACE). The settings on record: buffer component / additive; cited from earlier work.
Data set [6] addresses T2, angiotensin converting enzyme (ACE). Briefly: ACE assay: hydrolysis of ^3H-HipGlyGly by human serum, Lineweaver-Burke Km. The settings on record: when about 20% or more of the substrate has been hydrolyzed. The format is biochemical. How it is done:
The following sample illustrates the preferred assay method, the sensitivity of the assay and the Km for ^3 H-HipGlyGly. The reaction buffer contains 0.05 M Hepes, 0.1 M sodium chloride and 0.6 M sodium sulphate at pH 8.0. (Pepes is N-2-Hydroxyethyl piperazine N'-2-ethane sulfonic acid.) The substrate, ^3 H-HipGlyGly was dissolved in reaction buffer at a concentration of 16 mM and a specific radioactivity of about 0.15 millicuries/millimole. Serum was prepared from fresh whole blood by standard techniques. […] Hemolyzed samples were not used in the assay. Serum samples could be stored at least for one week at 2° C. to 8° C. or for at least 8 weeks frozen, prior to assaying. For the assay, 50 μl. of serum was diluted with 200 μl. of reaction buffer. All the reactions were carried out in glass tubes due to the potentially destructive action of ethyl acetate on plastic.
as §2
A control determination of background radioactivity was made using 50 μl. of reaction buffer instead of diluted serum in the reaction mixture. The purpose of this control was to determine the number of total counts attributable to background radiation, non-specific release of hippuric acid and the presence of unreacted substrate in the ethyl acetate phase. Less than 7% of the ^3 H-HipGly Gly entered the organic phase. Total radioactivity was determined by counting an amount of substrate equal to that used in the reaction mixture directly in the scintillation counter.
as §3, with “size. In the case where a significant fraction of substrate has been hydrolyzed, and the substrate in one which is more soluble in the organic phase, as for example, ^125 I-HPPGlyGlyGly, a modified formula is used to take account of the decreasing amount of substrate as the reaction progresses: [formula]” for “size.”
Reciprocal values of initial substrate concentration and reaction velocity were calculated and graphed according to the method of Lineweaver and Burke, as shown in FIG. 1. A straight line was obtained, which intercepted the ordinate at a value equal to the reciprocal of the maximum velocity of the enzyme reaction and intercepted the abcissa at a value equal to the negative reciprocal of the apparent Michaelis constant. […] It can be seen that reaction velocities as low as 12 nanomoles of substrate hydrolyzed per minute per ml. of serum can readily be measured.

Setting [7] is: 1 h, read-out: ACE Activity as % of control.

Where two headings read alike, the source gives them in different places. Ends that are not written are not given here. Peptide text beside a SMILES is read from it.

Here are results for nine molecules from patent US4251628A, “Substrates for angiotensin converting enzyme” (priority 1978, dated 1981).

Broadly, the Km is the substrate concentration at which the rate is half of its maximum.

T2 sequence (P12821 30-1232 limits assumed): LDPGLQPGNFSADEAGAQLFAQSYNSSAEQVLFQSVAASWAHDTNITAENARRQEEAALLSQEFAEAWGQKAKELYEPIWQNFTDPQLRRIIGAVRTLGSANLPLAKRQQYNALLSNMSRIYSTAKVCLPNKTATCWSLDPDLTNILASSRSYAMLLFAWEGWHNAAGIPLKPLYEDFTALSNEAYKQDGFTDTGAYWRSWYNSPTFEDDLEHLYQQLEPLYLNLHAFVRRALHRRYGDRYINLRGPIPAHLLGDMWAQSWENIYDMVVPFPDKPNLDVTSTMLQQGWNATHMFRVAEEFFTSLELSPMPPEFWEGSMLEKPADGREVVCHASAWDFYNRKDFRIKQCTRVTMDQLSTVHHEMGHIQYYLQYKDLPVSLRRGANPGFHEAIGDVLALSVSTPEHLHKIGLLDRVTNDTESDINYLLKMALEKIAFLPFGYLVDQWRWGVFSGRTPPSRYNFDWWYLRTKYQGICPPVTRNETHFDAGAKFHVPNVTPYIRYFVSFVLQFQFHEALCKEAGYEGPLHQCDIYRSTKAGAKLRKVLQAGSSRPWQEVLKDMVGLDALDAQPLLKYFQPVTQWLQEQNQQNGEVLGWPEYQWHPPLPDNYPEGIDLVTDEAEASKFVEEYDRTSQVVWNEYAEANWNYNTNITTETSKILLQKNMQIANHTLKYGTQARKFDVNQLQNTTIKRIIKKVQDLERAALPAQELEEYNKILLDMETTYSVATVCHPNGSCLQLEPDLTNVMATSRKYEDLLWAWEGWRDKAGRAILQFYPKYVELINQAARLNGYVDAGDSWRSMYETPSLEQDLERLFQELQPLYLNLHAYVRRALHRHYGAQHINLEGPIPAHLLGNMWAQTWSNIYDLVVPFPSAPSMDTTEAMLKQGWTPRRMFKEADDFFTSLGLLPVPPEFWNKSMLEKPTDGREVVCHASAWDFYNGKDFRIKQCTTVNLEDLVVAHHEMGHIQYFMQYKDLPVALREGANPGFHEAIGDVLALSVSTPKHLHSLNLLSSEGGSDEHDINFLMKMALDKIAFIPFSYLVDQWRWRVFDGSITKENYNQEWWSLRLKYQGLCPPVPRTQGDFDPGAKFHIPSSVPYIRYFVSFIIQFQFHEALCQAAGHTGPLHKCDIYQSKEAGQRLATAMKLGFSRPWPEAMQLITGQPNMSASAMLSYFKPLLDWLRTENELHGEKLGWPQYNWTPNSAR
T1 sequence (P12821 30-1232 limits assumed): as above

Take `[3H]c1ccc(C(=O)N2CCC[C@H]2C(=O)N[C@@H](Cc2ccccc2)C(=O)N[C@@H](CCCNC(=N)N)C(=O)O)cc1` [^3 H-BenzoylProPheArg, ^3 H-benzoylprolylphenylalanylarginine]: the “Fraction extracted into ethyl acetate” value in data set [1] was “about 3%”. Further, the Km in data set [2] (^3H-benzoylProPheArg as substrate) was determined as 200 µM. Also, the “Chloride / ionic strength requirement of the ACE-catalyzed hydrolysis” value in data set [2] (by substrate) was “chloride ions and high total ionic strength do not greatly affect the rate”.

In the case of “Angiotensin I: decapeptide angiotensin I, having the sequence AspArgValTyrIleHisProPheHisLeu (DRVYIHPFHL; printed: AspArgValTyrIleHisProPheHisLeu)”, the “Δ CPM (counts per minute)” value in data set [3] (4.5 × 10^-5 M, substrate 8 mM) worked out at 1278 counts per minute; in data set [3] (9 × 10^-6 M, substrate 8 mM), 2557 counts per minute; in data set [3] (9 × 10^-7 M, substrate 8 mM), 3057 counts per minute. The “ACE Activity as % of control” value in data set [3] (4.5 × 10^-5 M, substrate 8 mM, 45 µM) is on record as 34 % of control; in data set [3] (9 × 10^-6 M, substrate 8 mM, 9 µM), 67 % of control; in data set [3] (9 × 10^-7 M, substrate 8 mM, 0.9 µM) it was 81 % of control. For the same molecule, the “Mode of inhibition (in words)” value in data set [3] is “competitive inhibitors”. For the same molecule, in data set [4] (7.1 × 10^-5 M, 71 µM), the “ACE Activity As % of Control” value was 27 % of Control.

For RPPGFSPFR [Bradykinin], in data set [3] (2.7 × 10^-5 M, substrate 8 mM), the “Δ CPM (counts per minute)” value is recorded as 1553 counts per minute. For the same molecule, in data set [3] (2.7 × 10^-6 M, substrate 8 mM), the “Δ CPM (counts per minute)” value came out at 3165 counts per minute. Also, the “Δ CPM (counts per minute)” value in data set [3] (2.7 × 10^-7 M, substrate 8 mM) came to 3267 counts per minute. Also, in data set [3] (setting [7]), the remaining activity at 0.27 µM is 86%, the remaining activity at 2.7 µM is 83% and the remaining activity at 27 µM stood at 41%. Further, the “Mode of inhibition (in words)” value in data set [3] is “competitive inhibitors”. Besides, the remaining activity at 82 µM in data set [4] (8.2 × 10^-5 M, read-out: ACE Activity As % of Control) was determined as 21%.

As to `CC[C@H](C)[C@H](NC(=O)[C@H](CCC(N)=O)NC(=O)[C@@H]1CCCN1C(=O)[C@H](CCCNC(=N)N)NC(=O)[C@@H]1CCCN1C(=O)[C@H](Cc1c[nH]c2ccccc12)NC(=O)[C@@H]1CCC(=O)N1)C(=O)N1CCC[C@H]1C(=O)N1CCC[C@H]1C(=O)O` [BPP9α (SQ20881)], the “Δ CPM (counts per minute)” value was determined as 2200 counts per minute in data set [3] (2.8 × 10^-9 M, substrate 8 mM) and 1410 counts per minute in data set [3] (9 × 10^-8 M, substrate 8 mM). The remaining activity at 0.0028 µM in data set [3] (setting [7]) worked out at 58%. For the same molecule, the remaining activity at 0.09 µM in data set [3] (setting [7]) amounted to 37%. Moreover, the remaining activity at 33 µM in data set [4] (3.3 × 10^-5 M, read-out: ACE Activity As % of Control) was determined as 28%.

As to Phosphate, the “Inhibition of ACE (in words)” value in data set [5] was “inhibitory”.

With `NCC(=O)NCC(=O)O` [GlyGly] (H-Gly-Gly-OH), the “Product inhibition (in words)” value in data set [6] is given as “Product inhibition has been observed”.

For the molecule `O=C(O)CN(CCN(CC(=O)O)CC(=O)O)CC(=O)O` [EDTA, Ethylene diamine tetraacetic acid], in data set [3], the “Δ CPM (counts per minute)” value was determined as 1178. Besides, in data set [3] (setting [7]), the remaining activity at 900 µM was found to be 31%. The remaining activity at 1000 µM in data set [4] (1 × 10^-3 M, read-out: ACE Activity As % of Control) worked out at 23%. For the same molecule, the “Inhibition of ACE (in words)” value in data set [5] is recorded as “potent inhibitor of ACE”.

On to `[3H]c1ccc(C(=O)NCC(=O)O)cc1` [^3 H-Hippuric acid, Hippuric acid (Benzoyl glycine)], for which the “Fraction extracted into ethyl acetate” value in data set [1] is “Approximately 91%”.

Turning to `O=C(O)[C@@H]1CCCN1C(=O)c1ccccc1` [Benzoylproline], the “Fraction extracted into ethyl acetate” value in data set [1] was “about 90%”.
